pIC50: −log10 of the molar value.
Key:
[1] = biological target: T1, N-type calcium channels (Homo sapiens, UniProt Q00975); assay: Calcium influx assay (fluorescence, differentiated IMR32 cells with nifedipine); format: cell-based; details: 1 μM nifedipine, 100 mM KCl depolarization, read-out: Ca 2+ N-Type IC50
T1 construct: IMR32 preferentially express on the membrane surface N-type calcium channels; endogenous in cells; host or cells: IMR32 human neuroblastoma cells, differentiated with dibutyryl-cAMP and bromodeoxyuridine
Description: Under differentiating conditions, IMR32 preferentially express on the membrane surface N-type calcium channels. The remaining L-type calcium channels were blocked using the selective L type blocker, nifedipine. In these experimental conditions, only N type channels can be detected.
IMR32 cells were differentiated using 1 mM dibutyryl-cAMP and 2.5 μM bromodeoxyuridine for 8 days (4 times) in 225 cm^2 flask, then detached, seeded at 200,000 cells/well on 96 polylysine-coated plates and further incubated for 18-24 h in the presence of differentiating buffer before use.
The Ca^2+ Kit Assay (Molecular Devices), based on a fluorescent calcium indicator 485-535 nm wavelength, was used.
Differentiated cells were incubated with dye loading for 30 min at 37° C. then, nifedipine alone (1 μM) or in the presence of w-conotoxin or test compounds were added for further 15 min.
The fluorescence (485-535 nm) was measured before and after (30-40 sec) the automated injection of 100 mM KCl depolarizing solution using a Victor plate reader (Perkin Elmer).
The inhibition curves were calculated from 5 concentrations, each in triplicate, and the IC50 determined using a linear regression analysis.
The activity on N-type Calcium channel, expressed as IC50 of the (R)-isomer of this invention and the comparison compounds is reported in Table I.

[2] = biological target: T2, MAO-B (Rattus norvegicus, UniProt P19643); assay: In vitro MAO-B enzyme activity assay (radioenzymatic, 14C-phenylethylamine); format: biochemical; details: rat brain crude mitochondrial fraction; 30 min preincubation; concentration inhibiting 90% enzyme activity
T2 construct: Membrane preparations (crude mitochondrial fraction); from tissue; host or cells: rat brain, crude mitochondrial fraction
T2 sequence (P19643 1-520): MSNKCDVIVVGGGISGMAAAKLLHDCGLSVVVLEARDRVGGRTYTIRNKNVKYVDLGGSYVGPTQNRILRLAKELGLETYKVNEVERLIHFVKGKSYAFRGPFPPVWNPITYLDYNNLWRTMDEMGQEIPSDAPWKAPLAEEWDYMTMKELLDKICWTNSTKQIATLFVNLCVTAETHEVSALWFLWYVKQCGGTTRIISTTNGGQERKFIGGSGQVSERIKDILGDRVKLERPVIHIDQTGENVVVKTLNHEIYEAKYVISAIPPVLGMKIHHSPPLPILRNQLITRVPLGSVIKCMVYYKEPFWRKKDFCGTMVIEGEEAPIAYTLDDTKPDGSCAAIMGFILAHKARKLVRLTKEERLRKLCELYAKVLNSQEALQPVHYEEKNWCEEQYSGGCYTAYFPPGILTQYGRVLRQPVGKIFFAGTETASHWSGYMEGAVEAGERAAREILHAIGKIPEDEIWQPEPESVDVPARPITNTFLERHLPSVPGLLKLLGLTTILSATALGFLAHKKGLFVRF
Description: In Vitro MAO-B Enzyme Activity Assay
Membrane preparations (crude mitochondrial fraction): male Wistar rats (Harlan, Italy-175-200 g) were sacrificed under light anaesthesia and brains were rapidly removed and homogenized in 8 vol. of ice-cold 0.32 M sucrose buffer containing 0.1 M EDTA, pH 7.4. The crude homogenate was centrifuged at 2220 rpm for 10 min and the supernatant recovered. The pellet was homogenized and centrifuged again and the two supernatants were pooled and centrifuged at 9250 rpm for 10 min, +4° C. The pellet was resuspended in fresh buffer and centrifuged at 11250 rpm for 10 min, +4° C. The resulting pellet was stored at −80° C. until use.
In vitro enzyme activity assay: the enzyme activities were assessed with a radioenzymatic assay using the selective substrate ^14C-phenylethylamine (PEA) for MAO-B.
The mitochondrial pellet (500 μg protein) was resuspended in 0.1M phosphate buffer pH 7.4 and 500 μl was added to 50 μl of the test compound or buffer for 30 min at 37° C. (preincubation) then the substrate (50 μl) was added. The incubation was carried out for 10 min at 37° C. (^14C-PEA, 0.5 μM).
The reaction was stopped by adding 0.2 ml HCl or perchloric acid. After centrifugation, the deaminated metabolites were extracted with 3 ml of toluene and the radioactive organic phase measured by liquid scintillation spectrometry at 90% efficiency. Radioactivity in the eluate indicates the production of neutral and acidic metabolites formed as a result of MAO-B activity.
The enzymatic activity was expressed as nmoles of substrate transformed/mg protein/min. The activity of MAO-B in the sample was expressed as a percentage of control activity in the absence of inhibitors after subtraction of appropriate blank values.
The drug inhibition curves were obtained from at least eight different concentrations, each in duplicate (10^−10 to 10^−5 M) and the IC90 values (the drug concentration inhibiting 90% enzyme activity) with confidence intervals determined using linear regression analysis. (aided-computer program).
To reach a significant increase in neurotransmitter levels, MAO-B enzyme activity has to be blocked at least by 90%.

[3] = biological target: T3, Na channel Nav 1.3 (Homo sapiens, UniProt Q9NY46); assay: Electrophysiological assay, tonic block, two electrodes voltage clamp in Xenopus oocytes; format: cell-based; details: depolarized (-40 mV, half max current availability) condition, read-out: Nav 1.3 Dep. Curr IC50
T3 construct: expressed in transfected cells; host or cells: Xenopus laevis oocytes injected with Nav1.3 cRNA
Description: Electrophysiological Assay
Experiments for the determination of the tonic block are carried out on isolated Xenopus oocytes expressing the Na channel Nav 1.3. Currents are recorded using the two electrodes voltage clamp (TEVC) technique
The day after the preparation, the oocytes are injected (Drummond Nanoject) with 20 ng Nav1.3 cRNA and maintained in NDE.
Starting from 48 h after the mRNA injection whole cell currents are recorded using a two-microelectrode voltage clamp automated workstation.
Compounds are prepared in stock solutions (20 mM) and dissolved to the final concentrations in the external bath solution.
The current/voltage (I/V) relationship for the Nav1.3 currents expressed in oocytes was first studied in order to determine the membrane potential evoking the maximal activation.
The steady-state inactivation properties of the Nav1.3 currents were then studied in order to determine the membrane potentials for the resting state (Vrest) at which channel availability is maximal (Imax), and the membrane potential for the half maximal inactivation (V ½) producing half of the max current availability (I ½) respectively. This two voltage conditions were then used for the evaluation of the voltage dependence of the tonic block.
Finally a two-step protocol was used to determine the voltage dependence of the block of Nav1.3: the oocytes were clamped at −80 mV, the currents were activated by a 100 ms step pulse to 0 mV (Vtest) from a 3000 ms preconditioning potential at −80 mV (resting, Imax condition) and −40 mV (depolarized, I ½ condition), respectively.
Current amplitudes in the two conditions were recorded in the absence and in the presence of different concentrations of compound (washout was made in between) in order to determine the concentration-inhibition curves and IC50 values for the tonic block in the depolarized (half max current availability) conditions.
The activity on Nav 1.3 sodium channel, expressed as IC50 of the (R)-isomers of this invention and of the comparison compounds is reported in Table I.

[4] = test system: mice; assay: Mice formalin test; format: in vivo; details: 20 mg/kg p.o. 15 min before formalin; cumulative licking time, late phase 30-40 min, vs control group
Description: According to a modified protocol from Rosland et al., (1990) mice were injected subcutaneously (s.c.) with 20 μL of 2.7% solution of formalin into the plantar surface of left hindpaw and placed immediately into clear PVC observation chambers (23×12×13 cm).
The test compound (20 mg/kg) was administered p.o. 15 min before formalin injection in a volume of 10 ml/kg body weight to groups of 10 mice per dose. Control group was treated with vehicle.
Pain behavior was quantified by counting the cumulative licking time (seconds) of the injected paw with formalin. Measurements were taken during the late phase 30-40 min after formalin injection (Tjolsen et al 1992).
The analgesic effect of the compounds was calculated as the % of inhibition of the cumulative licking time respect the control group.

T1 sequence (Q00975 whole entry): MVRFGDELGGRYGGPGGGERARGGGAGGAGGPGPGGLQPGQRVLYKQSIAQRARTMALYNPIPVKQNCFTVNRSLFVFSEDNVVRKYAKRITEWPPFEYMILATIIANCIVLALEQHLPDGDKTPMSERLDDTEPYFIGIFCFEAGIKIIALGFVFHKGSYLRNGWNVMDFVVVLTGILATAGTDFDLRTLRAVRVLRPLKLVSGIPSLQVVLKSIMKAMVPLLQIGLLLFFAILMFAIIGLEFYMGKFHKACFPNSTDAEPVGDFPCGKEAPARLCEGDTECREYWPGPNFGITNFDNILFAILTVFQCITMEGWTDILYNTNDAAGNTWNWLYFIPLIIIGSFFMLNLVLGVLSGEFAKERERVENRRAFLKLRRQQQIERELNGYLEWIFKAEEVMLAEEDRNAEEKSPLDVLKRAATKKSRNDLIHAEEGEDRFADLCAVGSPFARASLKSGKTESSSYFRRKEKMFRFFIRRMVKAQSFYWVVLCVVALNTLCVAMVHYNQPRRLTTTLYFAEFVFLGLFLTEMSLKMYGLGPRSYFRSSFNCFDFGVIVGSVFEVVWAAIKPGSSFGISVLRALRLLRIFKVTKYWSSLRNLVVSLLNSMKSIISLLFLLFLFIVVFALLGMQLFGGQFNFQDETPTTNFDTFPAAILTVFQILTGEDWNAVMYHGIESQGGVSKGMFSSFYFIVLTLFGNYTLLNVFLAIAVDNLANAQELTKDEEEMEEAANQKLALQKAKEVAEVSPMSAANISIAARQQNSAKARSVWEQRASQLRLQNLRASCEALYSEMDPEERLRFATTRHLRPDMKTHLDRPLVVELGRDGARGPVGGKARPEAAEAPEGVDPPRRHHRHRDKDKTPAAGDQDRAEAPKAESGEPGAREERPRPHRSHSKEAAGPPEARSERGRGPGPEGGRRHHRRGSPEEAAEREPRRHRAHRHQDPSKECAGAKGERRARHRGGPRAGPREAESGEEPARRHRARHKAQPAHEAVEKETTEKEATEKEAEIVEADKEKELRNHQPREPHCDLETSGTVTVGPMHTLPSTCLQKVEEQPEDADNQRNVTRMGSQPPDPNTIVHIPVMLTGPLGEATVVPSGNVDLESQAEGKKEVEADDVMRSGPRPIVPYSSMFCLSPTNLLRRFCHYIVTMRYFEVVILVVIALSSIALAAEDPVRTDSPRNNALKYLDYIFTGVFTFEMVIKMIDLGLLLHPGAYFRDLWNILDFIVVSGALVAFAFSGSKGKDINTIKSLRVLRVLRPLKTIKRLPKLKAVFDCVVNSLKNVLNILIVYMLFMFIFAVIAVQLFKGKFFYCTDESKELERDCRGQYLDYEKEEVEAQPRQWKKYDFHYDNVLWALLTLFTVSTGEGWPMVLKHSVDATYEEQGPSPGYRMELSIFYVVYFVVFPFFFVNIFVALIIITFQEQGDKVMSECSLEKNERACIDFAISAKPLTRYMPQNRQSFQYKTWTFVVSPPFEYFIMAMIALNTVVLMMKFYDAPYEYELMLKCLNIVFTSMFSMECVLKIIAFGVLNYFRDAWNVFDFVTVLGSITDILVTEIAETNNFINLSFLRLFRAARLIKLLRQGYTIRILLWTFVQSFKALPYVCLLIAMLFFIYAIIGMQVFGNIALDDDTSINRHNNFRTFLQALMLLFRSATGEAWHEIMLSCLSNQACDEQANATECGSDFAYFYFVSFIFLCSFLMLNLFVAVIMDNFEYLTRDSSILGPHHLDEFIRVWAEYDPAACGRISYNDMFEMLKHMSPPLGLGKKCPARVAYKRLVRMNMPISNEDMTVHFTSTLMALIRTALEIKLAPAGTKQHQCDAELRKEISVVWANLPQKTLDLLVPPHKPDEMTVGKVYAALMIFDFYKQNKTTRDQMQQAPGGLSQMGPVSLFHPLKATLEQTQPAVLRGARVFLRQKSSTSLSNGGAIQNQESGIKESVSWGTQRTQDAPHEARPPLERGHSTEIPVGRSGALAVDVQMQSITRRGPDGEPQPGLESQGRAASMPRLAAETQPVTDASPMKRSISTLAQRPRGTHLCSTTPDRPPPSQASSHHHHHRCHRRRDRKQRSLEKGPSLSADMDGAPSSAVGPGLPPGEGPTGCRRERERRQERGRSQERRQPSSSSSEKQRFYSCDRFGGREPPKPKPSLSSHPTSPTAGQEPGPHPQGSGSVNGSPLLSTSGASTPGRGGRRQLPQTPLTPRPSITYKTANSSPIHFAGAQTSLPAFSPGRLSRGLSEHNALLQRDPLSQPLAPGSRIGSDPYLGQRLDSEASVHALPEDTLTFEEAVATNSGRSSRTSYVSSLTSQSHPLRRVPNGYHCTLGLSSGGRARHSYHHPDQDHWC
T1 sequence (P54284 whole entry partner): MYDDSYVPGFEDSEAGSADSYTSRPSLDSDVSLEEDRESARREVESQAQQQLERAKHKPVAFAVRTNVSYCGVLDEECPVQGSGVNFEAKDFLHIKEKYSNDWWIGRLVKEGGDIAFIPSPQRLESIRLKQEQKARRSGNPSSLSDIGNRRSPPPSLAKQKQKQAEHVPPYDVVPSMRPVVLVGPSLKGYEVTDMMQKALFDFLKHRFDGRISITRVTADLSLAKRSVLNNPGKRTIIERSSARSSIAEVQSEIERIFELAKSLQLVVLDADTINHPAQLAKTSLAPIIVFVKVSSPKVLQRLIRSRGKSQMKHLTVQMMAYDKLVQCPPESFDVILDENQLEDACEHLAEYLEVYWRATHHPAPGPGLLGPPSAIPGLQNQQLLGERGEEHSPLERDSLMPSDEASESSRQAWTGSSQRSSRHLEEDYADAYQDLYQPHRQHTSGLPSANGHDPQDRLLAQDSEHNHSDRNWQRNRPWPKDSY
T1 sequence (P54289 25-956 partner limits assumed): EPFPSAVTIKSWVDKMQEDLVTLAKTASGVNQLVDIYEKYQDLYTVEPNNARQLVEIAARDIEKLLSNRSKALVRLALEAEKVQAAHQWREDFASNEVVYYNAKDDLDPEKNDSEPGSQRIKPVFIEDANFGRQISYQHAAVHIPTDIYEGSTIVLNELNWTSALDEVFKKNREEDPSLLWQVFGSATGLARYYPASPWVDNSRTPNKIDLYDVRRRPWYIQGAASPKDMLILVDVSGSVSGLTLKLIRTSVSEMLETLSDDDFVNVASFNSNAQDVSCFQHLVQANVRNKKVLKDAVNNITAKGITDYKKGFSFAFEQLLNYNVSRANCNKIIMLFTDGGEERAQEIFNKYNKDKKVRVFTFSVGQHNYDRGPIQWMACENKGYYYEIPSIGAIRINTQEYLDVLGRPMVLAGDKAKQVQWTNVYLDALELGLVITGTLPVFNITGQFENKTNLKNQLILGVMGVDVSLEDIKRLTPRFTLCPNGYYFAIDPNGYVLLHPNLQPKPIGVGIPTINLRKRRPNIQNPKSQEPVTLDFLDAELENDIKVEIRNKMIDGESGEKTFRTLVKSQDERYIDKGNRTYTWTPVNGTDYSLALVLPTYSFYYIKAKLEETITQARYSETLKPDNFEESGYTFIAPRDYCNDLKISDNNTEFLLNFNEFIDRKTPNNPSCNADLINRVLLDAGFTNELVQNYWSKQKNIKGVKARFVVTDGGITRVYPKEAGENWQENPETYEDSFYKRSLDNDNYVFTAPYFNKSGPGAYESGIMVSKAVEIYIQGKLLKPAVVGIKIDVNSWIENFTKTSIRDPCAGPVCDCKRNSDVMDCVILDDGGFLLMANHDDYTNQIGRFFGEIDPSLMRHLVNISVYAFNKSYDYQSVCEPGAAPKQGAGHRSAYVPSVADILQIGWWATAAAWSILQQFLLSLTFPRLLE
T1 sequence (P54289 957-1103 partner limits assumed): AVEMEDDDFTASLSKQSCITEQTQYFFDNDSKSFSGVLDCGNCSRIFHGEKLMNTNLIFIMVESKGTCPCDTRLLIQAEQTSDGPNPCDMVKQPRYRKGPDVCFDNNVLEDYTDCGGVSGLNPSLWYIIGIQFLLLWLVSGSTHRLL

SMILES | pIC50 [1] | IC90 [2] [µM] | pIC50 [3] | FORMALIN TEST % inibition [4] [%]
CNC(=O)C(C)NCc1ccc(OCc2ccccc2Cl)cc1 (single isomer, unassigned; isomer 2) [2-[4-(2-chlorobenzyloxy)benzylamino]-N-methyl-propanamide S isomer, 2-[4-(2-chlorobenzyloxy)benzylamino]-N-methyl-propanamide] | 4.52 | 2.8 | 3.68 | 32
CC(NCc1ccc(OCc2ccccc2F)cc1)C(N)=O (single isomer, unassigned; isomer 2) [2-[4-(2-fluorobenzyloxy)benzylamino]-propanamide S isomer, 2-[4-(2-fluorobenzyloxy)benzylamino]-propanamide] | 4.64 | 28.4 | 3.69 | 79
CNC(=O)[C@@H](C)NCc1ccc(OCc2ccccc2Cl)cc1.CS(=O)(=O)O [2-[4-(2-chlorobenzyloxy)benzylamino]-N-methyl-propanamide R isomer, (R)-2-[4-(2-chlorobenzyloxy)benzylamino]-N-methylpropanamide methanesulfonate] | 5.08 | 122 | 4.42 | 49
CS(=O)(=O)O.C[C@@H](NCc1ccc(OCc2ccccc2F)cc1)C(N)=O [2-[4-(2-fluorobenzyloxy)benzylamino]-propanamide R isomer, (R)-2-[4-(2-fluorobenzyloxy)benzylamino]propanamide methanesulfonate] | 4.53 | 2500 | 3.83 | 80

Now from value to compound, other results behind:

pIC50 [1] | IC90 [2] [µM] | pIC50 [3] | SMILES | FORMALIN TEST % inibition [4] [%]
4.03 | 1.64 | 4.10 | CC(NCc1ccc(OCc2cccc(Cl)c2)cc1)C(N)=O (single isomer, unassigned; isomer 2) [2-[4-(3-chlorobenzyloxy)benzylamino]-propanamide S isomer, 2-[4-(3-chlorobenzyloxy)benzylamino]-propanamide] | 45
4.70 | 32.3 | 4.41 | CS(=O)(=O)O.C[C@@H](NCc1ccc(OCc2cccc(Cl)c2)cc1)C(N)=O [2-[4-(3-chlorobenzyloxy)benzylamino]-propanamide R isomer, (R)-2-[4-(3-chlorobenzyloxy)benzylamino]propanamide methanesulfonate] | 39

— patent publication US20110184068A1, “USE OF (HALOBENZYLOXY) BENZYLAMINO-PROPANAMIDES FOR THE MANUFACTURE OF MEDICAMENTS ACTIVE AS SODIUM AND/OR CALCIUM CHANNEL SELECTIVE MODULATORS” (Newron Pharmaceuticals S.p.A., priority 2004, published 2011)
